Measurements from paper PMC7178883, “1,2,4-Triazole-based anticonvulsant agents with additional ROS scavenging activity are effective in a model of pharmacoresistant epilepsy” (Journal of Enzyme Inhibition and Medicinal Chemistry, 2020).
Converted amounts (≈) assume the structure as drawn. Where two headings read alike, the source gives them in different places. Blank lines part the entries; values can stand above or below the compound they belong to.

How the values were obtained:
[1] = CUPRAC assay; conditions: pH 7.0, 450 nm
Description: Cupric reducing antioxidant capacity (CUPRAC) assay was performed according to the method by Apak et al.[20] with slight modifications. The CUPRAC reagent was prepared by mixing equal volume of CuCl2 (10 mM), neocuproine solution (7.5 mM), and acetate buffer (pH = 7.0). Subsequently, 50 µl of TP-10, TP-315, TP-427 (0.002–0.4 mg/ml) and 150 µl of CUPRAC reagent were pipetted into each well of 96-well plate (Nunc, Roskilde, Denmark). After pipetting, the plate was shaken for 5 min and then incubated for 25 min in the dark at room temperature. The absorbance of the solutions was read at 450 nm using a microplate reader (Epoch, BioTek Instruments, Inc., Winooski, VT, USA). At least six tests were performed for each concentration of the investigated compounds. The results were expressed as the IC50 (µg/ml) ± SD.

[2] = DPPH assay; conditions: methanol, 30 min, 517 nm
Description: Free radical scavenging activity of compounds TP-10, TP-315 and TP-427 was evaluated using DPPH assay. Briefly, 25 µl of 0.2 mM of methanolic solution of DPPH ([…]) was mixed with 175 µl of varying concentrations (0.002–4.5 mg/ml) of the studied compounds dissolved in methanol. Reaction mixtures in the 96-well plate were incubated in the dark at room temperature for 30 min. The absorbance was measured at 517 nm against blank (which consists of all reagents without the investigated compounds) using a microplate reader (Epoch, BioTek Instruments, Inc., Winooski, VT, USA). As a reference, the antioxidant activity of vitamin C was evaluated. Each concentration of the compounds was assayed at least six times. The results were expressed as the IC50 (µg/ml) ± SD calculated using the linear regression analysis.

[3] = design: method as in Barton et al. 25; conditions: ref Barton et al. 25, cited from earlier work
[4] = tested on: 6 Hz-induced psychomotor seizures; design: method as in Barton et al. 25; conditions: pretreatment time 15 min, ref Barton et al. 25, cited from earlier work

IC50 ± SD, CUPRAC [1]: 16.05 ± 0.48 µg/mL (≈ 91.1 µM)
IC50 ± SD, DPPH [2]: 7.82 ± 0.54 µg/mL (≈ 44.4 µM)
Compound: O=C1O[C@H]([C@@H](O)CO)C(O)=C1O [Ascorbic acid, reference compound]

Compound: CC[C@@H](C(N)=O)N1CCCC1=O [Levetiracetam]
TD50 ([3]; pretreatment time 60 min): >500 mg/kg

Compound: CCCC(CCC)C(=O)O [Valproate, valproic acid]
TD50 ([3]; pretreatment time 15 min): 363.3 mg/kg
ED50 ([4]; mouse 6 Hz test): 130.6 mg/kg
Protective index (TD50/ED50) [4]: 2.8
